Values of other authors in patent publication US8680084B2, “Oral contraceptives to prevent pregnancy and diminish premenstrual symptomatology” (Teva Women's Health, Inc., priority 2001, dated 2014).

What was measured:
[1] = for amount roughly equivalent to 1 mg of levonorgestrel: progestin potency relative to levonorgestrel; for amount roughly equivalent to 30 μg of ethinyl estradiol: estrogen potency relative to ethinyl estradiol
PMDD = conditions: daily dose of either 20 mg or 60 mg; randomized, placebo-controlled trials

SMILES	amount roughly equivalent to 1 mg of levonorgestrel [1]	also measured
C#C[C@]1(O)CC[C@H]2[C@@H]3CCC4=CC(=O)CC[C@@H]4[C@H]3C(=C)C[C@@]21CC [3-ketodesogestrel]	~1 mg	
C[C@]12CC[C@@H]3c4ccc(O)cc4CC[C@H]3[C@@H]1CC[C@@H]2O [17β-estradiol]		amount roughly equivalent to 30 μg of ethinyl estradiol [1]: ~2 mg
CNCCC(Oc1ccc(C(F)(F)F)cc1)c1ccccc1 (stereo not shown) [Fluoxetine, fluoxetine]		reducing symptoms of PMDD versus placebo (PMDD): superior to placebo
C#C[C@]1(O)CC[C@H]2[C@@H]3CCC4=CCCC[C@@H]4[C@H]3C(=C)C[C@@]21CC [desogestrel]	~1 mg	
C#C[C@]1(O)C=C[C@H]2[C@@H]3CCC4=CC(=O)CC[C@@H]4[C@H]3CC[C@@]21CC [gestodene]	about 0.7 mg	
C#C[C@]1(O)CC[C@H]2[C@@H]3CCc4cc(OC)ccc4[C@H]3CC[C@@]21C [mestranol]		amount roughly equivalent to 30 μg of ethinyl estradiol [1]: ~0.06 mg
C#C[C@]1(OC(C)=O)CC[C@H]2[C@@H]3CCC4=CC(=O)CC[C@@H]4[C@H]3CC[C@@]21C [norethindrone acetate]	about 3.5 mg	
